In ChEMBL document CHEMBL4507292 (2021):

How the values were obtained:
[1] = molecular target: GABA-A receptor; anion channel (Rattus norvegicus) (UniProt O09028+P15431+P18506+P18508+P19969+P20236+P23574+P23576+P28471+P28473+P30191+P62813+P63079+P63138+Q91ZM7+Q9ES14); test: Inhibition of GABAA, Muscimol, Central at 10 µM in the Eurofins-Panlabs radioligand binding assay (Eurofins_assay_226500); type: protein-complex assay; settings: Compound concentration 10.0 uM
[2] = molecular target: Neuropeptide Y receptor type 1 (Homo sapiens) (UniProt P25929); test: Inhibition of Neuropeptide Y Y1 at 10 µM in the Eurofins-Panlabs radioligand binding assay (Eurofins_assay_257010)
[3] = molecular target: hERG (KCNH2) potassium channel (Homo sapiens, UniProt Q12809); test: Inhibition of Potassium Channel hERG at 10 µM in the Eurofins-Panlabs radioligand binding assay (Eurofins_assay_265900); parameters: ligand concentration 1.5 nM, non-specific ligand with concentration Astemizole, incubation time 60 min, incubation temperature 25 °C; settings: HEK-293 cells expressing human recombinant hERG, probe [3H] Astemizole, 1.5 nM, compound concentration 10 uM
Caspase-1 (Homo sapiens) = Caspase-1 (Homo sapiens) (UniProt P29466); test: Inhibition of Peptidase, CASP1 (Caspase 1) at 10 µM in the Eurofins-Panlabs enzyme assay (Eurofins_assay_163000); settings: Compound concentration 10.0 uM
[4] = molecular target: Interstitial collagenase (Homo sapiens) (UniProt P03956); test: Inhibition of Peptidase, Matrix Metalloproteinase-1 (MMP-1) at 10 µM in the Eurofins-Panlabs enzyme assay (Eurofins_assay_114110); settings: Compound concentration 10.0 uM
[5] = molecular target: T1, Alpha-2C adrenergic receptor (Homo sapiens) (UniProt P18825); test: (§1) Adrenergic alpha2C Eurofins-Panlabs radioligand binding assay; parameters: ligand concentration 1 nM, non-specific ligand with concentration 10 µM WB-4101, incubation time 60 min, incubation temperature 25 °C
T1 sequence (whole entry): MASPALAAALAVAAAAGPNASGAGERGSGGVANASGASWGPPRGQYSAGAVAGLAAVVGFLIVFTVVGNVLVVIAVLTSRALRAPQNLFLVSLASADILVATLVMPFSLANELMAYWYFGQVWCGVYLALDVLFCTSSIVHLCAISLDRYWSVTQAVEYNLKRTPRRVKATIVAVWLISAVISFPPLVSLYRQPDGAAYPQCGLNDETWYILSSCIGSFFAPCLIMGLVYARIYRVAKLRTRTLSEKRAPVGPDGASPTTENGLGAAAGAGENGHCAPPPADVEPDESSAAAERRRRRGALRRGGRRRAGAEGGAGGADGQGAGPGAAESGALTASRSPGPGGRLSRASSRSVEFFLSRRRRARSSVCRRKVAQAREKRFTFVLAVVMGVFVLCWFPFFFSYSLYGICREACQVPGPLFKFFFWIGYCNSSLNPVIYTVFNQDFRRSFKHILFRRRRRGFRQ

[6] = molecular target: Alpha-2C adrenergic receptor (Homo sapiens, UniProt P18825); test: as §1; parameters: ligand concentration 1 nM, non-specific ligand with concentration 10 µM WB-4101, incubation time 60 min, incubation temperature 25 °C
[7] = molecular target: Beta-3 adrenergic receptor (Homo sapiens, UniProt P13945); test: Inhibition of Adrenergic beta3 at compound concentration of 10.0 uM in the Eurofins-Panlabs radioligand binding assay (Eurofins_assay_204200); parameters: ligand concentration 0.5 nM, non-specific ligand with concentration 1000 uM Alprenolol, incubation time 90 min, incubation temperature 25 C
[8] = molecular target: C-X-C chemokine receptor type 2 (Homo sapiens) (UniProt P25025); test: Inhibition of Chemokine CXCR2 (IL-8RB) at 10 µM in the Eurofins-Panlabs radioligand binding assay (Eurofins_assay_244500)
Rattus norvegicus [9] = species: Rattus norvegicus; test: Inhibition of Glycine, Strychnine-Sensitive at 10 µM in the Eurofins-Panlabs radioligand binding assay (Eurofins_assay_239000); settings: Compound concentration 10.0 uM
[10] = molecular target: T2, Muscarinic acetylcholine receptor M5 (Homo sapiens) (UniProt P08912); test: Inhibition of Muscarinic M5 at 10 µM in the Eurofins-Panlabs radioligand binding assay (Eurofins_assay_253010); parameters: ligand concentration 0.8 nM; settings: Compound concentration 10.0 uM
T2 sequence (whole entry): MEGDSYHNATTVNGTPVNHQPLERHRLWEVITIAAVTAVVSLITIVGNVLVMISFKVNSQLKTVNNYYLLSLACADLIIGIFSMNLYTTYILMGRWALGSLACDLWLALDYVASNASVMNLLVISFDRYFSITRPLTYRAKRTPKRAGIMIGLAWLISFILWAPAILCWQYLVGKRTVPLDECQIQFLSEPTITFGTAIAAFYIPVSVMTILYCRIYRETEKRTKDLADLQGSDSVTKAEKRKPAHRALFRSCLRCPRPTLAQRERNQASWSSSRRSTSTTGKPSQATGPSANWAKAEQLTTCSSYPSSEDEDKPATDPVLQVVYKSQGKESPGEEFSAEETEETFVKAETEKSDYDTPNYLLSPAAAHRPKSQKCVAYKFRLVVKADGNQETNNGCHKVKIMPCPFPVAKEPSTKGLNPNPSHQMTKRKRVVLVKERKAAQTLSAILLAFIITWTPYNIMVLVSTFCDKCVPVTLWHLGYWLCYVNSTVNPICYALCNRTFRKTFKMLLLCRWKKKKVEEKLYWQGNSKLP

[11] = molecular target: Substance-P receptor (Homo sapiens) (UniProt P25103); test: Tachykinin NK1 Eurofins-Panlabs radioligand binding assay; settings: Compound concentration 10.0 uM
Caspase-3 (Homo sapiens) = Caspase-3 (Homo sapiens) (UniProt P42574); test: Peptidase, CASP3 (Caspase 3) Eurofins-Panlabs enzyme assay; settings: Compound concentration 10.0 uM
Rattus norvegicus [12] = species: Rattus norvegicus; test: Protein Serine/Threonine Kinase, PKC, Non-Selective Eurofins-Panlabs enzyme assay; settings: Compound concentration 10.0 uM
[13] = molecular target: Peroxisome proliferator-activated receptor gamma (Homo sapiens) (UniProt P37231); test: PPARgamma Eurofins-Panlabs radioligand binding assay; parameters: ligand concentration 5 nM, non-specific ligand with concentration 0.5 µM L-797773, incubation time 18 h, incubation temperature 15 °C; settings: Compound concentration 10.0 uM
Insulin receptor = Insulin receptor (Homo sapiens, UniProt P06213); test: Protein Tyrosine Kinase, Insulin Receptor Eurofins-Panlabs enzyme assay; parameters: substrate with concentration 10 µg/mL […], incubation time 60 min, incubation temperature 25 °C
[14] = molecular target: B1 bradykinin receptor (Homo sapiens) (UniProt P46663); test: Bradykinin B1 Eurofins-Panlabs radioligand binding assay; settings: Compound concentration 10.0 uM
Homo sapiens [15] = species: Homo sapiens; test: Calcitonin Gene-Related Peptide CGRP1 Eurofins-Panlabs radioligand binding assay; type: protein-complex assay; settings: Compound concentration 10.0 uM
[16] = molecular target: C-C chemokine receptor type 5 (Homo sapiens) (UniProt P51681); test: Chemokine CCR5 Eurofins-Panlabs radioligand binding assay; settings: Compound concentration 10.0 uM
[17] = molecular target: Prostaglandin D2 receptor (Homo sapiens) (UniProt Q13258); test: Prostanoid DP Eurofins-Panlabs radioligand binding assay; settings: Compound concentration 10.0 uM
[18] = molecular target: Somatostatin receptor type 5 (Homo sapiens) (UniProt P35346); test: Somatostatin sst5 Eurofins-Panlabs radioligand binding assay; settings: Compound concentration 10.0 uM
[19] = molecular target: Adenosine receptor A1 (Homo sapiens) (UniProt P30542); settings: Compound concentration 10.0 uM
[20] = molecular target: Adenosine receptor A2a (Homo sapiens) (UniProt P29274); settings: Compound concentration 10.0 uM
[21] = molecular target: Muscarinic acetylcholine receptor M3 (Homo sapiens) (UniProt P20309); settings: Compound concentration 10.0 uM
Homo sapiens [22] = species: Homo sapiens

Sequence of Insulin receptor (P06213 28-758 limits assumed): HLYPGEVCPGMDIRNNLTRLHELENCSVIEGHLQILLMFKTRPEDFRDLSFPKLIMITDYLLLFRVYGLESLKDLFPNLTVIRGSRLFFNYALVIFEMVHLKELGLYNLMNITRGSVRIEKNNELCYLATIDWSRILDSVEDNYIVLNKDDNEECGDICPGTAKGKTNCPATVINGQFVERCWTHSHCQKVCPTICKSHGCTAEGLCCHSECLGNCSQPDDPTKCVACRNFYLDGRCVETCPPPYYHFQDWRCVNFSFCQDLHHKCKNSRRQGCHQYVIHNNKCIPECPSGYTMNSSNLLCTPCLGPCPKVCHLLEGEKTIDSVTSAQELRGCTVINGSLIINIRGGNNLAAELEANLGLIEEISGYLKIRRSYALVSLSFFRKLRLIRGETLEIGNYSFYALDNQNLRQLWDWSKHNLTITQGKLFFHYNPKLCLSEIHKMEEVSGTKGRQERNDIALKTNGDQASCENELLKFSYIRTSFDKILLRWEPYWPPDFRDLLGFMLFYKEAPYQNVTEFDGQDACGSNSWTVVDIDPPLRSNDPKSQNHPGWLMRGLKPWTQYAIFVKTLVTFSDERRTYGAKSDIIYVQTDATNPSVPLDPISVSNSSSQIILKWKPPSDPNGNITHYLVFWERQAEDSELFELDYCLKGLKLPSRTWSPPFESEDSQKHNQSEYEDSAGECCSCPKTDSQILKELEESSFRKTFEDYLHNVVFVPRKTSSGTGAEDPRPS
Sequence of Insulin receptor (P06213 763-1382 limits assumed): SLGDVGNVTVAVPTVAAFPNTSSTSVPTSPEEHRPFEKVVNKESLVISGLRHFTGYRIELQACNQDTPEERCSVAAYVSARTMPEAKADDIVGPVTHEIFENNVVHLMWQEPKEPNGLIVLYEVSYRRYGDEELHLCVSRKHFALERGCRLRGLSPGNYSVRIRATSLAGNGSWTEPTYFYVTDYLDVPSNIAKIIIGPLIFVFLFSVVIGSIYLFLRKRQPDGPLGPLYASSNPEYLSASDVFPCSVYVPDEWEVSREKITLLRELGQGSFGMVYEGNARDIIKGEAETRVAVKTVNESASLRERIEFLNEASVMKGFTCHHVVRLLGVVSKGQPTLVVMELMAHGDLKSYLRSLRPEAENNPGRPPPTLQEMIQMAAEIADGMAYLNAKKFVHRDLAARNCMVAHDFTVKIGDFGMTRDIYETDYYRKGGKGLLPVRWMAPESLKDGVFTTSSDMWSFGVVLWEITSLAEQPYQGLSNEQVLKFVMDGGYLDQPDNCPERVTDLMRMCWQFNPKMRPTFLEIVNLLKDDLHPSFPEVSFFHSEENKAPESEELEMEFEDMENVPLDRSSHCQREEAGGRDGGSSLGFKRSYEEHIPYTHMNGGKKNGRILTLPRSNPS
Sequence of Beta-3 adrenergic receptor (P13945 whole entry): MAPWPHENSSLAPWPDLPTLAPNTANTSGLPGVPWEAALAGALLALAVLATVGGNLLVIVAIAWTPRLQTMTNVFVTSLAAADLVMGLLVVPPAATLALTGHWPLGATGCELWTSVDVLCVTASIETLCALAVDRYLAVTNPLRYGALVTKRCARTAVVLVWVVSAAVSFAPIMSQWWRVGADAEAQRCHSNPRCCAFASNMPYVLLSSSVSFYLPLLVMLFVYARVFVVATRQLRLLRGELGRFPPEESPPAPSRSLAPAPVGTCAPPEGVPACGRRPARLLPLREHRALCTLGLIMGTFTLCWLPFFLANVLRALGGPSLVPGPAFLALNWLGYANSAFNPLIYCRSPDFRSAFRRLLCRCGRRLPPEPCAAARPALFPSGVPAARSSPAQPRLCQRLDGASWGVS
Sequence of Caspase-1 (Homo sapiens) (P29466 120-297 limits assumed): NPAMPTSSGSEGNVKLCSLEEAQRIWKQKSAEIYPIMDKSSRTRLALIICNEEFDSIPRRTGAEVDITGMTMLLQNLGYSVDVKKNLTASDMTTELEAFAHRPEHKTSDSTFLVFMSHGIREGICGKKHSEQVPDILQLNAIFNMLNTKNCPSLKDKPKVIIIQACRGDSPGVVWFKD
Sequence of Caspase-1 (Homo sapiens) (P29466 317-404 limits assumed): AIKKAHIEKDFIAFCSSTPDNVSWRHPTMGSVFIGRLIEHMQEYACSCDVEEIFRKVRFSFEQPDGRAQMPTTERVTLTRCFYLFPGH
Sequence of B1 bradykinin receptor (Homo sapiens) (P46663 whole entry): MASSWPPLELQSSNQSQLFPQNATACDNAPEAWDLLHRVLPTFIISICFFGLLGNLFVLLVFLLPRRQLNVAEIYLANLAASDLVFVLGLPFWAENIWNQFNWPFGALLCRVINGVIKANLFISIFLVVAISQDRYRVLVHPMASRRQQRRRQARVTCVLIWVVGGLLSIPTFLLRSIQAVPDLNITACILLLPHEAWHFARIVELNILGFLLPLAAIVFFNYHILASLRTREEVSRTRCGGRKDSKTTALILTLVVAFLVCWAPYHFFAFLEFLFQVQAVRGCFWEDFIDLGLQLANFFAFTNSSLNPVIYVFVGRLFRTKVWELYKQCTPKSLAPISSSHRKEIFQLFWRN
Sequence of Peroxisome proliferator-activated receptor gamma (Homo sapiens) (P37231 whole entry): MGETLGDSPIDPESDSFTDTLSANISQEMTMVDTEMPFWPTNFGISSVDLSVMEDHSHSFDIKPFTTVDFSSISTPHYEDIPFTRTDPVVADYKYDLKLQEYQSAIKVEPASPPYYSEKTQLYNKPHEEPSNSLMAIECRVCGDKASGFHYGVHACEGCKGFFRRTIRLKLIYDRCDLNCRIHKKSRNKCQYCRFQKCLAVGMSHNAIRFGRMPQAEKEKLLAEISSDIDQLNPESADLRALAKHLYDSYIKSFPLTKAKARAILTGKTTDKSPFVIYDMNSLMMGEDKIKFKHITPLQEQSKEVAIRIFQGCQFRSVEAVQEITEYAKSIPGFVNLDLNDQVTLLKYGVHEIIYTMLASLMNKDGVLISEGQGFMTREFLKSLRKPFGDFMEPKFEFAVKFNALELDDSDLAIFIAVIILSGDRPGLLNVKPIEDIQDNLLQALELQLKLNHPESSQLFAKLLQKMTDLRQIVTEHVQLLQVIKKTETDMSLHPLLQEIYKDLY
Sequence of Adenosine receptor A2a (Homo sapiens) (P29274 whole entry): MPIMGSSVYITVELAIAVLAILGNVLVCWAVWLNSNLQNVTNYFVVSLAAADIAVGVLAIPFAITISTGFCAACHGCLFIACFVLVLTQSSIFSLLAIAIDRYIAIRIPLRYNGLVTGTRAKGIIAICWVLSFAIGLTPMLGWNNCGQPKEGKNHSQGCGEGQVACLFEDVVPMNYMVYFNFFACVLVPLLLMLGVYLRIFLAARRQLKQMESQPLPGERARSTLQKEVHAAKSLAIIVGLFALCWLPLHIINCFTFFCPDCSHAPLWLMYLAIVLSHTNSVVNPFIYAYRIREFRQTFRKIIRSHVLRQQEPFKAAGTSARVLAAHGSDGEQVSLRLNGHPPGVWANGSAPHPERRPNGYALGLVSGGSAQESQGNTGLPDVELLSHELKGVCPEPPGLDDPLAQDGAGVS
Sequence of Caspase-3 (Homo sapiens) (P42574 29-175 limits assumed): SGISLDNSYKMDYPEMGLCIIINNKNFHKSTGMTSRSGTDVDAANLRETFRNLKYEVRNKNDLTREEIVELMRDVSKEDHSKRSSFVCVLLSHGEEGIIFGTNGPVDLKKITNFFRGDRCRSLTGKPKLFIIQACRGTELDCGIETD
Sequence of Caspase-3 (Homo sapiens) (P42574 176-277 limits assumed): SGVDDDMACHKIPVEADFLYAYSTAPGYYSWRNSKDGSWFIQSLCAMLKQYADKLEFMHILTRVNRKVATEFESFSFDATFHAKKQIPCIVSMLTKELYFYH
Sequence of Adenosine receptor A1 (Homo sapiens) (P30542 whole entry): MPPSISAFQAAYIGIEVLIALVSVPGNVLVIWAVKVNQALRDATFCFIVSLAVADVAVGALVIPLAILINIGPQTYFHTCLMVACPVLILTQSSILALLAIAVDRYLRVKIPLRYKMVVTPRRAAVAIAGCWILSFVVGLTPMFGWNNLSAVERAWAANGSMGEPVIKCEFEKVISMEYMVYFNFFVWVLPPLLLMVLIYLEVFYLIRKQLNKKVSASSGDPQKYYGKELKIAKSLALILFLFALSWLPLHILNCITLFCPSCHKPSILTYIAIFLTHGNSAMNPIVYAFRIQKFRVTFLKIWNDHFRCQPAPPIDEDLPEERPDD
Sequence of Substance-P receptor (Homo sapiens) (P25103 whole entry): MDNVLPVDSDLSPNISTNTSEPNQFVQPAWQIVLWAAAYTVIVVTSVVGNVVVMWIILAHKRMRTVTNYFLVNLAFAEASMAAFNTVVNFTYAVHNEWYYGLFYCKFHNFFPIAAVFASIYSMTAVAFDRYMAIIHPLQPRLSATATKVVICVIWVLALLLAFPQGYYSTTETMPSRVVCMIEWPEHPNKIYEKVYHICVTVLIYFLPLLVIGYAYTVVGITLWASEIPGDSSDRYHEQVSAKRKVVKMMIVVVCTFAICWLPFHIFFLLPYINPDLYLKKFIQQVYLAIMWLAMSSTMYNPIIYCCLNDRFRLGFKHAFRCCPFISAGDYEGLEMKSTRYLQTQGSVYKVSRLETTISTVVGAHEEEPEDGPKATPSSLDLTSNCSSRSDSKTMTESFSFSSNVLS
Sequence of Muscarinic acetylcholine receptor M3 (Homo sapiens) (P20309 whole entry, looked up): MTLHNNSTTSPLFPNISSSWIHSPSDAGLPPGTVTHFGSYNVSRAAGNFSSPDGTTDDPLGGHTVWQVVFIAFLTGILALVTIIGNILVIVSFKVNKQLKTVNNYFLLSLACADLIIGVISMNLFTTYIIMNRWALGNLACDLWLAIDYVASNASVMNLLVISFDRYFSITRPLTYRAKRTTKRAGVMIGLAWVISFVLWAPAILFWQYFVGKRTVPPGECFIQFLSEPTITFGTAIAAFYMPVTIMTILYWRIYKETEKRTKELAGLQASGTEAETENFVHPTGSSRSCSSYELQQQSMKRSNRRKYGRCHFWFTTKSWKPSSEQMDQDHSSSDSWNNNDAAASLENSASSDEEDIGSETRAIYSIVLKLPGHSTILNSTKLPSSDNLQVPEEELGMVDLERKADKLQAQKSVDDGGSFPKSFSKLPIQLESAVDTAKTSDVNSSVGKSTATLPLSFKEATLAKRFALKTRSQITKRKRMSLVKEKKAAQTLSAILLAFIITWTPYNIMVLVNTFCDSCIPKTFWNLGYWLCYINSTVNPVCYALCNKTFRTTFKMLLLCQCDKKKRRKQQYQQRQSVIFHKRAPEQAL

O=C(O)c1cc(-c2ccc(C3CCNCC3)cc2)c2ccc(-c3ccc(C(F)(F)F)cc3)cc2c1 [PPTN]
inhibition [1]: 12% | inhibition [2]: 2% | inhibition at 60 min, 10 µM [3]: -6% (not active) | inhibition (Caspase-1 (Homo sapiens)): -1% | inhibition [4]: -10% | inhibition ([5]; Compound concentration 0.01 uM): -4% | inhibition ([5]; Compound concentration 0.1 uM): -2% | inhibition ([5]; Compound concentration 1.0 uM): 6% | inhibition ([5]; Compound concentration 10.0 uM): 63% | IC50 [6]: 6.88 µM | Ki [6]: 1 µM | IC50 [7]: 9.61 µM | Ki [7]: 7.2 µM | inhibition [8]: 2% | inhibition (Rattus norvegicus [9]): -3% | inhibition [10]: 39% | inhibition [11]: 1% | inhibition (Caspase-3 (Homo sapiens)): 3% | inhibition (Rattus norvegicus [12]): -5% | inhibition [13]: 4% | IC50 (Insulin receptor): 4.31 µM | inhibition (Insulin receptor; Compound concentration 0.01 uM): 1% | inhibition (Insulin receptor; Compound concentration 0.1 uM): -10% | inhibition (Insulin receptor; Compound concentration 1.0 uM): 14% | inhibition (Insulin receptor; Compound concentration 10.0 uM): 75% | inhibition [14]: 12% | inhibition (Homo sapiens [15]): 26% | inhibition [16]: 4% | inhibition [17]: 12% | inhibition [18]: 20% | inhibition [19]: -2% | inhibition [20]: 38% | inhibition [21]: 11% | inhibition (Homo sapiens [22]; Compound concentration 0.01 uM): -3% | inhibition (Homo sapiens [22]; Compound concentration 0.1 uM): -3% | inhibition (Homo sapiens [22]; Compound concentration 1.0 uM): -8% | inhibition (Homo sapiens [22]; Compound concentration 10.0 uM): 67%
